Experimental data published in US20220110902A1, “Methods of treating amyloid-beta peptide diseases” (Ecole Polytechnique Federale de Lausanne, priority 2016, published 2022).

Test system: old C57BL/6J mice
Assay: NR treatment of aged C57BL/6J mice: muscle amyloid, Oxphos proteins, MSR
Type: in vivo, mouse
Method: Young (1 month old) and aged (20-24 months old) C57BL/6JRj mice were purchased from Janvier Labs. APP/PSEN1 mice (Tg(APPswe,PSEN1dE9)85Dbo/Mmjax) were purchased from JAX. C57BL/6JR mice were fed with pellets containing vehicle or NR (400 mg/kg/day) for 6-8 weeks, while APP/PSEN1 mice were fed NR pellets for 10 weeks, starting at the age of 4 months. The pellets were prepared by mixing powdered chow diet (20165, Harlan Laboratories) with water or with NR dissolved in water. Pellets were dried under a laminar flow hood for 48 hours. Mice were housed by groups of 2 to 5 animals per cage and randomized to 7-8 animals per experimental group according to their body weight. No blinding was used during the experiment procedures. Mouse: Total RNA was extracted from tissues using TriPure RNA isolation reagent (Roche) according to the product manual. Expression of selected genes was analyzed using the LightCycler480 system (Roche) and LightCycler® 480 SYBR Green I Master reagent (Roche). The beta-2-Microglobulin B2m gene was used as housekeeping reference. Mouse: Frozen cortex tissue samples were lysed by mechanical homogenization with RIPA buffer containing protease and phosphatase inhibitors, and analyzed by SDS-PAGE and western blot. Subsequently, the concentration of extracted protein was determined by using the Bio-Rad Protein Assay. Proteins were detected using the following antibodies: HSP60 (Enzo Life Science), CLPP (Sigma), anti-GAPDH (14C10) (Cell Signaling), LONP1 (Sigma), PINK1 (Novus Biologicals), LC3 A/B (Cell Signaling), SDHB (Oxphos cocktail, Abcam), MTCO1 (Abcam), Ubiquitin (Enzo), P62 (BD Transduction Laboratories), Phopsho P62 (Cell Signaling), VDAC (Abcam), β-Amyloid, 17-24 (4G8) (BioLegend). In addition to the housekeeping proteins, loading was monitored by Ponceau Red to ensure a homogeneous loading. Antibody detection reactions for all the immunoblot experiments were developed by enhanced chemiluminescence (Advansta) and imaged using the c300 imaging system (Azure Biosystems). Pixel intensity was quantified by using ImageJ software. […]

## NC(=O)c1ccc[n+]([C@@H]2O[C@H](CO)[C@@H](O)[C@H]2O)c1 [NR, Nicotinamide Riboside triflate]
Aged mice, NR 400 mg/kg/day for 6-8 weeks
  SDHB and MTCO1 protein levels in muscle: partially restoring
Old mice, NR 400 mg/kg/day in pellets for 6-8 weeks
  A11- and 4G8 positive amyloid-like deposits in TA and forelimbs muscle: marked reduction
quadriceps, NR 400 mg/kg/day for 6-8 weeks
  expression of MSR signature genes in muscle: increasing
